# Assay results published in PMC3853718 (Journal of Translational Medicine, 2013).
# System: metabolically active sites of disease
# Assay: FDG-PET/CT tumor metabolic activity (SUVmax)
# Conditions: RP2D 12 mg/m^2, 10 evaluable subjects; responder = SUVmax decrease greater than 30%; 2-sided 95% CI: 0.3%, 44.5%
# From the text: Metabolic activity data were obtained for research use only and were not used for clinical management of subjects.
smiles,measurement,value
CCc1cnn2c(NCc3ccc[n+]([O-])c3)cc(N3CCCC[C@H]3CCO)nc12 [dinaciclib],PET/CT response rate,10.0%
